In ChEMBL document CHEMBL5303573, “Mapping human microbiome drug metabolism by gut bacteria and their genes” (Nature, 2019):

Assay: The drug is tested on Bifidobacterium longum subsp. Infantis strain: CCUG52486 for biotransformation. The drug concentrations were measured before and after a 12-h incubation by liquid-chromatography-coupled mass spectrometry (LC–MS)
Settings: 2 µM

Compound | Bacterial Biotransformation
COc1ccc(/C=C/C(=O)Nc2ccccc2C(=O)O)cc1OC | Compound NOT metabolized
O=C(NC(Cc1cc(=O)[nH]c2ccccc12)C(=O)O)c1ccc(Cl)cc1 (configuration not stated) [REBAMIPIDE] | Compound NOT metabolized

Assay: The drug is tested on Collinsella aerofaciens strain: ATCC25986 for biotransformation. The drug concentrations were measured before and after a 12-h incubation by liquid-chromatography-coupled mass spectrometry (LC–MS)
Settings: 2 µM

Compound | Bacterial Biotransformation
Cc1ccc(/C(=C\CN2CCCC2)c2ccccn2)cc1 [TRIPROLIDINE] | Compound NOT metabolized
COc1ccc(/C=C/C(=O)Nc2ccccc2C(=O)O)cc1OC | Compound NOT metabolized
O=C(NC(Cc1cc(=O)[nH]c2ccccc12)C(=O)O)c1ccc(Cl)cc1 (configuration not stated) [REBAMIPIDE] | Compound NOT metabolized
COc1c2occc2cc2ccc(=O)oc12 [METHOXSALEN] | Compound NOT metabolized

Assay: The drug is tested on Eggerthella lenta strain: ATCC25559 for biotransformation. The drug concentrations were measured before and after a 12-h incubation by liquid-chromatography-coupled mass spectrometry (LC–MS)
Settings: 2 µM

Compound | Bacterial Biotransformation
Cc1ccc(/C(=C\CN2CCCC2)c2ccccn2)cc1 [TRIPROLIDINE] | Compound NOT metabolized

Assay: The drug is tested on Alistipes indistinctus strain: DSM22520 for biotransformation. The drug concentrations were measured before and after a 12-h incubation by liquid-chromatography-coupled mass spectrometry (LC–MS)
Settings: 2 µM

Compound | Bacterial Biotransformation
Cc1ccc(/C(=C\CN2CCCC2)c2ccccn2)cc1 [TRIPROLIDINE] | Compound NOT metabolized
O=C(NC(Cc1cc(=O)[nH]c2ccccc12)C(=O)O)c1ccc(Cl)cc1 (configuration not stated) [REBAMIPIDE] | Compound NOT metabolized
COc1c2occc2cc2ccc(=O)oc12 [METHOXSALEN] | Compound NOT metabolized

Assay: The drug is tested on Bacteroides cellulosilyticus strain: DSM14838 for biotransformation. The drug concentrations were measured before and after a 12-h incubation by liquid-chromatography-coupled mass spectrometry (LC–MS)
Settings: 2 µM

Compound | Bacterial Biotransformation
COc1ccc(/C=C/C(=O)Nc2ccccc2C(=O)O)cc1OC | Compound NOT metabolized
O=C(NC(Cc1cc(=O)[nH]c2ccccc12)C(=O)O)c1ccc(Cl)cc1 (configuration not stated) [REBAMIPIDE] | Compound NOT metabolized
COc1c2occc2cc2ccc(=O)oc12 [METHOXSALEN] | Compound metabolized

Assay: The drug is tested on Bacteroides finegoldii strain: DSM17565 for biotransformation. The drug concentrations were measured before and after a 12-h incubation by liquid-chromatography-coupled mass spectrometry (LC–MS)
Settings: 2 µM

Compound | Bacterial Biotransformation
Cc1ccc(/C(=C\CN2CCCC2)c2ccccn2)cc1 [TRIPROLIDINE] | Compound NOT metabolized
COc1ccc(/C=C/C(=O)Nc2ccccc2C(=O)O)cc1OC | Compound metabolized
O=C(NC(Cc1cc(=O)[nH]c2ccccc12)C(=O)O)c1ccc(Cl)cc1 (configuration not stated) [REBAMIPIDE] | Compound NOT metabolized
COc1c2occc2cc2ccc(=O)oc12 [METHOXSALEN] | Compound metabolized

Assay: The drug is tested on Clostridium scindens strain: ATCC35704 for biotransformation. The drug concentrations were measured before and after a 12-h incubation by liquid-chromatography-coupled mass spectrometry (LC–MS)
Settings: 2 µM

Compound | Bacterial Biotransformation
Cc1ccc(/C(=C\CN2CCCC2)c2ccccn2)cc1 [TRIPROLIDINE] | Compound NOT metabolized
COc1ccc(/C=C/C(=O)Nc2ccccc2C(=O)O)cc1OC | Compound NOT metabolized
O=C(NC(Cc1cc(=O)[nH]c2ccccc12)C(=O)O)c1ccc(Cl)cc1 (configuration not stated) [REBAMIPIDE] | Compound NOT metabolized
COc1c2occc2cc2ccc(=O)oc12 [METHOXSALEN] | Compound NOT metabolized

Assay: The drug is tested on Coprococcus comes strain: ATCC27758 for biotransformation. The drug concentrations were measured before and after a 12-h incubation by liquid-chromatography-coupled mass spectrometry (LC–MS)
Type: ADME
Parameters: dose 2 uM, timepoint 0 vs 12 hours
Settings: 2 µM

Compound | Bacterial Biotransformation
COc1ccc(/C=C/C(=O)Nc2ccccc2C(=O)O)cc1OC | Compound NOT metabolized
O=C(NC(Cc1cc(=O)[nH]c2ccccc12)C(=O)O)c1ccc(Cl)cc1 (configuration not stated) [REBAMIPIDE] | Compound NOT metabolized
COc1c2occc2cc2ccc(=O)oc12 [METHOXSALEN] | Compound metabolized

Assay: The drug is tested on Dorea formicigenerans strain: ATCC27755 for biotransformation. The drug concentrations were measured before and after a 12-h incubation by liquid-chromatography-coupled mass spectrometry (LC–MS)
Settings: 2 µM

Compound | Bacterial Biotransformation
Cc1ccc(/C(=C\CN2CCCC2)c2ccccn2)cc1 [TRIPROLIDINE] | Compound NOT metabolized
COc1ccc(/C=C/C(=O)Nc2ccccc2C(=O)O)cc1OC | Compound NOT metabolized
O=C(NC(Cc1cc(=O)[nH]c2ccccc12)C(=O)O)c1ccc(Cl)cc1 (configuration not stated) [REBAMIPIDE] | Compound NOT metabolized
COc1c2occc2cc2ccc(=O)oc12 [METHOXSALEN] | Compound NOT metabolized

Assay: The drug is tested on Enterococcus faecalis strain: V583 for biotransformation. The drug concentrations were measured before and after a 12-h incubation by liquid-chromatography-coupled mass spectrometry (LC–MS)
Settings: 2 µM

Compound | Bacterial Biotransformation
Cc1ccc(/C(=C\CN2CCCC2)c2ccccn2)cc1 [TRIPROLIDINE] | Compound NOT metabolized
COc1ccc(/C=C/C(=O)Nc2ccccc2C(=O)O)cc1OC | Compound NOT metabolized
O=C(NC(Cc1cc(=O)[nH]c2ccccc12)C(=O)O)c1ccc(Cl)cc1 (configuration not stated) [REBAMIPIDE] | Compound NOT metabolized
COc1c2occc2cc2ccc(=O)oc12 [METHOXSALEN] | Compound NOT metabolized

Assay: The drug is tested on Ruminococcus gnavus strain: ATCC29149 for biotransformation. The drug concentrations were measured before and after a 12-h incubation by liquid-chromatography-coupled mass spectrometry (LC–MS)
Settings: mediterraneibacter gnavus, 2 µM

Compound | Bacterial Biotransformation
Cc1ccc(/C(=C\CN2CCCC2)c2ccccn2)cc1 [TRIPROLIDINE] | Compound NOT metabolized
COc1ccc(/C=C/C(=O)Nc2ccccc2C(=O)O)cc1OC | Compound NOT metabolized
O=C(NC(Cc1cc(=O)[nH]c2ccccc12)C(=O)O)c1ccc(Cl)cc1 (configuration not stated) [REBAMIPIDE] | Compound NOT metabolized
COc1c2occc2cc2ccc(=O)oc12 [METHOXSALEN] | Compound metabolized

Assay: The drug is tested on Enterobacter cancerogenus strain: ATCC35316 for biotransformation. The drug concentrations were measured before and after a 12-h incubation by liquid-chromatography-coupled mass spectrometry (LC–MS)
Settings: 2 µM

Compound | Bacterial Biotransformation
COc1ccc(/C=C/C(=O)Nc2ccccc2C(=O)O)cc1OC | Compound NOT metabolized
O=C(NC(Cc1cc(=O)[nH]c2ccccc12)C(=O)O)c1ccc(Cl)cc1 (configuration not stated) [REBAMIPIDE] | Compound NOT metabolized
COc1c2occc2cc2ccc(=O)oc12 [METHOXSALEN] | Compound NOT metabolized

Assay: The drug is tested on Escherichia coli strain: BW25113 for biotransformation. The drug concentrations were measured before and after a 12-h incubation by liquid-chromatography-coupled mass spectrometry (LC–MS)
Settings: 2 µM

Compound | Bacterial Biotransformation
COc1ccc(/C=C/C(=O)Nc2ccccc2C(=O)O)cc1OC | Compound NOT metabolized
COc1c2occc2cc2ccc(=O)oc12 [METHOXSALEN] | Compound NOT metabolized

Assay: The drug is tested on Providencia rettgeri strain: DSM1131 for biotransformation. The drug concentrations were measured before and after a 12-h incubation by liquid-chromatography-coupled mass spectrometry (LC–MS)
Type: ADME
Parameters: dose 2 uM, timepoint 0 vs 12 hours
Settings: 2 µM

Compound | Bacterial Biotransformation
Cc1ccc(/C(=C\CN2CCCC2)c2ccccn2)cc1 [TRIPROLIDINE] | Compound NOT metabolized
COc1ccc(/C=C/C(=O)Nc2ccccc2C(=O)O)cc1OC | Compound NOT metabolized
O=C(NC(Cc1cc(=O)[nH]c2ccccc12)C(=O)O)c1ccc(Cl)cc1 (configuration not stated) [REBAMIPIDE] | Compound NOT metabolized
COc1c2occc2cc2ccc(=O)oc12 [METHOXSALEN] | Compound NOT metabolized

Settings: bifidobacterium adolescentis, 12 h, 2 µM
Description: The drug is tested on Bifidobacterium adolescentis strain: ATCC 15703 for biotransformation. The drug concentrations were measured before and after a 12-h incubation by liquid-chromatography-coupled mass spectrometry (LC–MS)

Compound | Bacterial Biotransformation
Cc1ccc(/C(=C\CN2CCCC2)c2ccccn2)cc1 [TRIPROLIDINE] | Compound NOT metabolized
COc1ccc(/C=C/C(=O)Nc2ccccc2C(=O)O)cc1OC | Compound NOT metabolized
O=C(NC(Cc1cc(=O)[nH]c2ccccc12)C(=O)O)c1ccc(Cl)cc1 (configuration not stated) [REBAMIPIDE] | Compound NOT metabolized
COc1c2occc2cc2ccc(=O)oc12 [METHOXSALEN] | Compound NOT metabolized

Settings: bacteroides fragilis, 12 h, 2 µM
Description: The drug is tested on Bacteroides fragilis strain: NCTC 9343 for biotransformation. The drug concentrations were measured before and after a 12-h incubation by liquid-chromatography-coupled mass spectrometry (LC–MS)

Compound | Bacterial Biotransformation
Cc1ccc(/C(=C\CN2CCCC2)c2ccccn2)cc1 [TRIPROLIDINE] | Compound NOT metabolized
O=C(NC(Cc1cc(=O)[nH]c2ccccc12)C(=O)O)c1ccc(Cl)cc1 (configuration not stated) [REBAMIPIDE] | Compound NOT metabolized
COc1c2occc2cc2ccc(=O)oc12 [METHOXSALEN] | Compound metabolized

Settings: bacteroides intestinalis, 12 h, 2 µM
Description: The drug is tested on Bacteroides intestinalis strain: DSM17393 for biotransformation. The drug concentrations were measured before and after a 12-h incubation by liquid-chromatography-coupled mass spectrometry (LC–MS)

Compound | Bacterial Biotransformation
Cc1ccc(/C(=C\CN2CCCC2)c2ccccn2)cc1 [TRIPROLIDINE] | Compound NOT metabolized
COc1ccc(/C=C/C(=O)Nc2ccccc2C(=O)O)cc1OC | Compound NOT metabolized
O=C(NC(Cc1cc(=O)[nH]c2ccccc12)C(=O)O)c1ccc(Cl)cc1 (configuration not stated) [REBAMIPIDE] | Compound NOT metabolized
COc1c2occc2cc2ccc(=O)oc12 [METHOXSALEN] | Compound metabolized

Settings: segatella copri, 12 h, 2 µM
Description: The drug is tested on Prevotella copri strain: DSM18205 for biotransformation. The drug concentrations were measured before and after a 12-h incubation by liquid-chromatography-coupled mass spectrometry (LC–MS)

Compound | Bacterial Biotransformation
Cc1ccc(/C(=C\CN2CCCC2)c2ccccn2)cc1 [TRIPROLIDINE] | Compound NOT metabolized
COc1ccc(/C=C/C(=O)Nc2ccccc2C(=O)O)cc1OC | Compound metabolized
O=C(NC(Cc1cc(=O)[nH]c2ccccc12)C(=O)O)c1ccc(Cl)cc1 (configuration not stated) [REBAMIPIDE] | Compound NOT metabolized
COc1c2occc2cc2ccc(=O)oc12 [METHOXSALEN] | Compound NOT metabolized

Settings: enterocloster bolteae, 12 h, 2 µM
Description: The drug is tested on Clostridium bolteae strain: ATCCBAA-613 for biotransformation. The drug concentrations were measured before and after a 12-h incubation by liquid-chromatography-coupled mass spectrometry (LC–MS)

Compound | Bacterial Biotransformation
Cc1ccc(/C(=C\CN2CCCC2)c2ccccn2)cc1 [TRIPROLIDINE] | Compound NOT metabolized
COc1ccc(/C=C/C(=O)Nc2ccccc2C(=O)O)cc1OC | Compound NOT metabolized
O=C(NC(Cc1cc(=O)[nH]c2ccccc12)C(=O)O)c1ccc(Cl)cc1 (configuration not stated) [REBAMIPIDE] | Compound NOT metabolized
COc1c2occc2cc2ccc(=O)oc12 [METHOXSALEN] | Compound metabolized

Settings: akkermansia muciniphila, 12 h, 2 µM
Description: The drug is tested on Akkermansia muciniphila strain: ATCC BAA-835 for biotransformation. The drug concentrations were measured before and after a 12-h incubation by liquid-chromatography-coupled mass spectrometry (LC–MS)

Compound | Bacterial Biotransformation
Cc1ccc(/C(=C\CN2CCCC2)c2ccccn2)cc1 [TRIPROLIDINE] | Compound NOT metabolized
COc1ccc(/C=C/C(=O)Nc2ccccc2C(=O)O)cc1OC | Compound NOT metabolized
O=C(NC(Cc1cc(=O)[nH]c2ccccc12)C(=O)O)c1ccc(Cl)cc1 (configuration not stated) [REBAMIPIDE] | Compound NOT metabolized
